This is an account of results in article PMC6956158, “In Vitro and In Vivo Assessment of Metabolic Drug Interaction Potential of Dutasteride with Ketoconazole” (Pharmaceutics, 2019).

On the set-up of data set [1]: method as in ref 12 (supplement). The following applies: ref 12 (supplement); cited from earlier work.
Data set [2] concerns DUT metabolism in HLM. The experiment in a line: Inhibition of DUT metabolism by KET in HLM. The format is in vitro ADME, human. The procedure: (§1) To investigate the metabolic interaction potential between DUT and KET, the disappearance of DUT (5 μM) in RLM and HLM was determined under the absence and presence of KET at various concentrations ranging from 1 to 5000 nM. A microsomal reaction mixture was prepared as follows (total volume: 0.2 mL): 1 mM NADPH, 10 mM MgCl2, substrate (DUT), and inhibitor (KET), RLM or HLM (1 mg/mL), and 50 mM phosphate buffer. […] The unbound fractions of DUT in rat plasma, RLM, human plasma, and HLM were measured using a rapid equilibrium dialysis (RED) device (Thermo Fisher Scientific, Inc., Waltham, MA, USA) as described in a previous study. […] The fraction unbound was calculated as the ratio of the drug concentrations in the “buffer” chamber to those in the “sample” chamber. The blood-to-plasma concentration ratio (RB) of DUT was determined as described previously. […] The concentrations of DUT in the plasma sample were determined by the validated HPLC analysis.
(§2) The half maximal inhibitory concentration (IC50) of KET for the inhibition of the DUT metabolism was determined by the nonlinear regression analysis (GraphPad Prism ver. 5.01; GraphPad Software Inc., San Diego, CA, USA) based on the following Hill equation: y = Min + Max−Min/1 + (x/IC50)^-P where Max and Min are the initial and final y value, respectively, and the exponent P represents the Hill coefficient. […]

In data set [3] the test system is DUT metabolism in RLM. The experiment in a line: Inhibition of DUT metabolism by KET in RLM. Format: in vitro ADME, rat. The following applies: RLM 1 mg/mL, DUT 5 μM, 90 min. The procedure:
as §1, §2

On the set-up of data set [4]: method as in ref 13 (supplement). The following applies: ref 13 (supplement); cited from earlier work.
Data set [5] in a line: Stability in rat plasma (QC samples). The following applies: n = 5; for Stability (percent drug remaining), Autosampler: 10 °C for 24 h in the autosampler; for Stability (percent drug remaining), Bench-Top: room temperature for 3 h; for Stability (percent drug remaining), Freeze-Thaw: three freezing and thawing cycles; for Stability (percent drug remaining), Long-Term: −20 °C for 30 days. The format is in vitro ADME. As for the experimental part: The bioanalytical method proposed herein for the simultaneous determination of DUT and H-DUT was fully validated on the basis of the US FDA guideline. The selectivity of the method was evaluated by comparing chromatograms of the analytes (DUT, H-DUT, and internal standard) in blank rat plasma, blank rat plasma spiked with the analytes, and rat plasma sample obtained from the in vivo rat pharmacokinetic study. Further, the existence of potential interferences at the acquisition windows of the analytes was checked. The linearity of the method was evaluated by adding increasing amounts of DUT and H-DUT to the blank plasma. To construct calibration curves (n = 5), the peak area ratios of DUT or H-DUT to the internal standard (y-axis) were plotted against the nominal concentration ratios of DUT or H-DUT (10–1000 ng/mL) to the internal standard (400 ng/mL) (x-axis), and then, linear regression analysis was performed. The sensitivity was assessed by estimating the LLOQ (signal-to-noise [S/N] ratio > 5). The peaks of the analytes at the LLOQ should be discrete, identifiable, and reproducible with acceptable precision (<20%) and accuracy (within 80–120%). The extraction recovery, matrix effect, dilution integrity, and stability (under bench-top, freeze–thaw, post-preparative, and long-term conditions) in addition to the intra-assay (five different samples) and inter-assay (five different runs) precision and accuracy for each analyte were determined at the LLOQ and three different QC levels as described in the US FDA guidelines and in previous studies.

Data set [6] can be described thus: In vivo pharmacokinetic study in rats, intravenous DUT without or with intravenous KET. On the set-up: species or system rat. Conditions: male, Sprague-Dawley, rat, plasma, iv, 2.5 mg/kg, n = 4. An excerpt: (§3) The animal experiment protocols used in the present study were approved by the Pusan National University-Institutional Animal Care and Use Committee for scientific care and ethical procedures (Busan, Korea; approval date: 01/05/2018; approval number: PNU-2018-1848). Male Sprague–Dawley rats (8-week-old; approximately 250 g) were purchased from DBL Co., Ltd. (Incheon, Korea). The rats were acclimatized in a clean room of the Laboratory Animal Center of Pusan National University (Busan, Korea) for 1 week. Then, they were fasted for 12 h prior to the pharmacokinetic experiment and then anesthetized by intramuscular injection of Zoletil at a dose of 20 mg/kg. The femoral vein and artery of the rats were cannulated with a polyethylene tube (BD Medical; Franklin Lakes, NJ, USA). At approximately 4–6 h after the surgery for cannulation, an intravenous dose of DUT (2.5 mg/kg) simultaneously with or without intravenous KET (20 mg/kg) or an oral dose of DUT (5 mg/kg) simultaneously with or without intravenous KET (20 mg/kg) was administered to the rats. Drugs were dissolved in a vehicle consisting of dimethyl sulfoxide, ethanol, and polyethylene glycol 400 at a ratio of 10:5:85 (v/v/v). Blood (approximately 200 μL) was collected in heparin pre-treated microcentrifuge tubes via the femoral artery at 0, 1, 5, 15, 30, 60, 120, 180, 240, 360, 480, and 1200 min after the intravenous dose and at 0, 5, 15, 30, 60, 120, 150, 180, 240, 360, 480, and 1200 min after the oral dose. Following centrifugation of the blood samples at 3000× g at 4 °C for 10 min [19], 100 μL aliquots of plasma were stored at −80 °C.
(§4) The half maximal inhibitory concentration (IC50) of KET for the inhibition of the DUT metabolism was determined by the nonlinear regression analysis (GraphPad Prism ver. 5.01; GraphPad Software Inc., San Diego, CA, USA) based on the following Hill equation: y = Min + Max−Min/1 + (x/IC50)^-P where Max and Min are the initial and final y value, respectively, and the exponent P represents the Hill coefficient. Peak plasma concentration (Cmax) and time to reach Cmax (Tmax) were read directly from the observed data. Non-compartmental analysis was conducted to estimate pharmacokinetic parameters such as total area under plasma concentration versus time curve from time zero to time of last sampling (AUClast), total area under plasma concentration versus time curve from time zero to infinity (AUCinf), total plasma clearance (CL), volume of distribution at steady state (Vss), and terminal half-life (t1/2) using the NCA200 and 201 models of WinNonlin ver. 3.1 (Certara USA Inc., Princeton, NJ, USA).

The nature of data set [7]: In vivo pharmacokinetic study in rats, oral DUT without or with KET. Set-up: species or system rat. Conditions: male, Sprague-Dawley, rat, plasma, po, 5 mg/kg, n = 4.
From the text: as §3, with “([…])” for “(20 mg/kg) or an oral dose of DUT (5 mg/kg) simultaneously with or without intravenous KET (20 mg/kg)”
as §4

Where [8] appears, read: intravenous DUT 2.5 mg/kg with intravenous KET 20 mg/kg.
[9] abbreviates: intravenous DUT 2.5 mg/kg, DUT alone.
[10] abbreviates: oral DUT 5 mg/kg with oral KET (20 mg/kg).

With `CC(=O)N1CCN(c2ccc(OCC3COC(Cn4ccnc4)(c4ccc(Cl)cc4Cl)O3)cc2)CC1` (centres unmarked) [KET, ketoconazole], the “fu,mic,KET, unbound fraction in HLM” value in data set [1] is given as 0.97. Moreover, the concentration for half-maximal inhibition (IC50) in data set [2] (HLM 1 mg/mL, DUT 5 μM, 90 min) is 54.9 ± 15.6 nM; in data set [3], 77.3 ± 11.1 nM. Moreover, in data set [2] (HLM, fu,mic,KET × IC50 / (S/Km + 1), competitive inhibition assumed, read-out: Ki (unbound inhibition constant)), the Ki worked out at 48.5 nM. Further, the “Imax,u, maximum unbound plasma concentration” value in data set [4] was 0.0913 µM.
Turning to `C[C@]12C=CC(=O)N[C@@H]1[C@H](O)C[C@@H]1[C@@H]2CC[C@]2(C)[C@@H](C(=O)Nc3cc(C(F)(F)F)ccc3C(F)(F)F)CC[C@@H]12` [H-DUT, 6β-hydroxydutasteride], the “Stability (percent drug remaining), Autosampler” value turned out to be 104 ± 1% in data set [5] (HQC 750 ng/mL), 103 ± 4% in data set [5] (LLOQ 10 ng/mL), 97.1 ± 0.8% in data set [5] (LQC 30 ng/mL) and 103 ± 4% in data set [5] (MQC 150 ng/mL). The “Stability (percent drug remaining), Bench-Top” value in data set [5] (HQC 750 ng/mL) turned out to be 101 ± 0%; in data set [5] (LLOQ 10 ng/mL) it was 102 ± 4%; in data set [5] (LQC 30 ng/mL), 104 ± 9%; in data set [5] (MQC 150 ng/mL), 99.0 ± 1.4%. Besides, the “Stability (percent drug remaining), Freeze-Thaw” value was 101 ± 1% in data set [5] (HQC 750 ng/mL), 101 ± 7% in data set [5] (LLOQ 10 ng/mL), 99.0 ± 2.3% in data set [5] (LQC 30 ng/mL) and 103 ± 3% in data set [5] (MQC 150 ng/mL). For the same compound, the “Stability (percent drug remaining), Long-Term” value in data set [5] (HQC 750 ng/mL) is 106 ± 1%; in data set [5] (LLOQ 10 ng/mL), 96.1 ± 4.7%; in data set [5] (LQC 30 ng/mL), 95.1 ± 3.7%; in data set [5] (MQC 150 ng/mL), 98.7 ± 1.5%. Also, the exposure AUC(0-t) in data set [6] (setting [8]) is 1070 ng·h/mL; in data set [6] (setting [9]) it was 2130 ng·h/mL; in data set [7] (setting [10]), 630 ng·h/mL; in data set [7] (oral DUT 5 mg/kg, DUT alone) it was 1590 ng·h/mL. Moreover, the highest concentration (Cmax) in data set [6] (setting [8]) is 116 ± 4 ng/mL; in data set [6] (setting [9]) it was 141 ± 17 ng/mL; in data set [7] (setting [10]), 62.8 ± 12.3 ng/mL; in data set [7] (oral DUT 5 mg/kg, DUT alone) it was 103 ± 20 ng/mL.

The term IC50 denotes the concentration that gives 50% inhibition. Read a low IC50 as higher potency. By Ki is commonly meant the equilibrium dissociation constant of an inhibitor or competing ligand from its target. The AUC(0-t) is the area under the concentration-time curve up to a stated or last time point. As usually defined, the Cmax is the peak of the concentration-time curve.
